Experimental data reported in article PMC8175309, “Translational CNS Steady-State Drug Disposition Model in Rats, Monkeys, and Humans for Quantitative Prediction of Brain-to-Plasma and Cerebrospinal Fluid-to-Plasma Unbound Concentration Ratios” (The AAPS Journal, 2021).
Like-named read-outs stand apart in the source and are kept apart here.

Experiments:
[1] = cited from earlier work
[2] = cited from earlier work; remark: listed apart in the source
[3] = Observed Kp,uu,brain and Kp,uu,CSF in monkeys; conditions: for Kp uu at 6 h: cynomolgus monkey, intravenous; for Kp,uu,CSF Monkey: lumbar CSF; for Kp,uu,CSF Monkey / Kp,uu,brain Monkey: *1 data internally obtained
Procedure: Monkey experiments were conducted internally or at the Drug Safety Research Laboratories in Shin Nippon Biomedical Laboratories via consignment to Axcelead Drug Discovery Partners. […] Detailed dosage regimen for each compound is summarized in Supplemental Table 3. […] Each cassette was assigned to a separate group of monkeys. The vehicle was saline or a mixture of dimethylacetamide and 1,3-butanediol (1:1, v/v). At the end of the 6-h infusion or 1 h after intravenous bolus administration, the monkeys were anesthetized, and whole blood, CSF, and whole brain were collected. Blood was collected using the anticoagulant, heparin sodium, and immediately centrifuged; the plasma was transferred to polypropylene tubes. Then, ketamine hydrochloride (50 mg/mL; 0.2 mL/kg; 10 mg/kg) was intramuscularly administered. CSF was collected after lumbar puncture using a spinal needle (22–25G) and a syringe pre-wetted with 10% CHAPS solution to prevent adsorption of compounds to all the equipment during pretreatment. CSF samples were immediately centrifuged, and the supernatant layers were transferred to polypropylene tubes. […] After collecting the cerebellum, hippocampus, and cerebral cortex from the whole brain, these were washed with cold saline, weighed, and homogenized immediately in 4 volumes of ice-cold 100 mmol/L sodium phosphate buffer. All samples were stored at –80°C until analysis by LC-MS/MS. Each sample (50 μL) was mixed with the working solution (the mixture of dimethyl sulfoxide and acetonitrile (2:8, v/v)), and protein was precipitated by the addition of 150 μL acetonitrile containing the internal standards (5 ng/mL alprenolol and diclofenac). After centrifugation at 5,250 rpm and 4°C for 5 min, the supernatant (150 μL) was transferred to a polypropylene 96-well plate (Corning; Corning, NY, USA) and completely evaporated under a gentle stream of N2. The residue was reconstituted in dilution solution (mobile phase A/B (7:3, v/v)), and the supernatant was analyzed by LC-MS/MS.
Each sample (50 μL) was mixed with the working solution (the mixture of dimethyl sulfoxide and acetonitrile (2:8, v/v)), and the protein was precipitated by adding 150 μL acetonitrile containing internal standards (5 ng/mL alprenolol and diclofenac). After centrifugation at 5250 rpm and 4°C for 5 min, the supernatant (150 μL) was transferred to a polypropylene 96-well plate (Corning) and completely evaporated under a gentle stream of N2. The residue was reconstituted in mobile phase A/B (7:3, v/v)), and the supernatant was analyzed by LC-MS/MS. API5000 and QTRAP5500 (AB SCIEX, Framingham, MA, USA) equipped with Ultra-Fast Liquid Chromatography (Shimadzu, Kyoto, Japan) were used for determination of drug concentrations. Reversed-phase chromatography was performed using Shim-pack XR ODS (2.2 μm, 2.0×30 mm). Mobile phase A consisted of 10 mM ammonium formate with 0.2% formic acid, and mobile phase B contained acetonitrile with 0.2% formic acid. […] The mass spectrometer was operated in the positive ionization mode with multiple reaction monitoring (MRM). The MRM parameters (Q1 ion, Q3 ion, DP, EP, CE, and CXP) for monitoring the compounds are shown in Supplemental Table 4. Data acquisition and processing were performed using Analyst 1.6.2 (AB SCIEX, Framingham, MA, USA).
To perform correlation analyses between the observed Kp,uu,brain and Kp,uu,CSF, and the model-based prediction of Kp,uu,brain and Kp,uu,CSF, data from literature information were integrated into the internally obtained data for these assessments (Supplemental Table 2) ([17],[22]–[24],[27]–[33]). When only the total concentrations in plasma, CSF, and brain were available, the total concentration ratio in plasma to CSF or brain (Kp,CSF or Kp,brain, respectively) was estimated, followed by calculation of Kp,uu,CSF or Kp,uu,brain based on Eqs.

Row | SMILES | Kp,uu,CSF Rat ([1]; *4 ref Friden et al. (21)) | Kp,uu,CSF Human ([2]; *4 ref Friden et al. (21)) | Kp,uu,brain Rat ([1]; *4 ref Friden et al. (21)) | other results
1 | CN(C)CCC=C1c2ccccc2CCc2ccccc21 [Amitriptyline] | 0.17 | 0.18 | – | –
2 | NCC(CC(=O)O)c1ccc(Cl)cc1 (stereo not shown) [Baclofen] | 0.027 | 0.17 | 0.02 | Kp uu at 6 h ([3]; CSF (lumbar) / plasma): 0.03; Kp uu at 6 h ([3]; brain / plasma): 0.037
3 | CO/N=C(\C(=O)N[C@@H]1C(=O)N2C(C(=O)O)=C(COC(C)=O)CS[C@H]12)c1csc(N)n1 [Cefotaxime] | – | 0.17 | – | Kp,uu,brain Human ([2]; *4 ref Friden et al. (21)): 0.007
4 | CN(C)CCCC1(c2ccc(F)cc2)OCc2cc(C#N)ccc21 (stereo not shown) [Citalopram] | – | – | – | Kp,uu,brain Rat ([1]; *3 ref Summerfield et al. (25)): 0.623; Kp,uu,CSF Rat ([1]; *7 ref Kodaira et al. (20)): 0.667; Kp,uu,brain Rat ([1]; *7 ref Kodaira et al. (20)): 0.494; Kp,uu,brain Human ([2]; *3 ref Summerfield et al. (25)): 0.347
5 | COc1ccc2c3c1O[C@H]1[C@@H](O)C=C[C@H]4[C@@H](C2)N(C)CC[C@@]341 [Codeine] | – | – | – | Kp,uu,CSF Rat ([1]; in vivo): 0.54; Kp,uu,brain Rat ([1]; in vivo): 0.89; Kp,uu,CSF Human ([2]; in vivo): 0.79
6 | CC(C)Nc1cccnc1N1CCN(C(=O)c2cc3cc(NS(C)(=O)=O)ccc3[nH]2)CC1 [Delavirdine] | 0.051 | 0.23 | 0.043 | –
7 | CCC(C(N)=O)(C(N)=O)c1ccccc1 [Ethyl-phenylmalonamide] | 1.4 | – | 1.250 | –
8 | CNCCC(Oc1ccc(C(F)(F)F)cc1)c1ccccc1 (stereo not shown) [Fluoxetine] | – | – | – | Kp,uu,brain Rat ([1]; *3 ref Summerfield et al. (25)): 2.143; Kp,uu,brain Human ([2]; *3 ref Summerfield et al. (25)): 0.53
9 | NCC1(CC(=O)O)CCCCC1 [Gabapentin] | 0.067 | 0.16 | 0.140 | Kp,uu,brain Human ([2]; *4 ref Friden et al. (21)): 0.16
10 | C[C@H]1COc2c(N3CCN(C)CC3)c(F)cc3c(=O)c(C(=O)O)cn1c23 [Levofloxacin] | 0.19 | 0.18 | 0.120 | –
11 | CN1CC[C@]23c4c5ccc(O[C@@H]6O[C@H](C(=O)O)[C@@H](O)[C@H](O)[C@H]6O)c4O[C@H]2[C@@H](O)C=C[C@H]3[C@H]1C5 [M3G] | 0.049 | 0.081 | 0.011 | –
12 | CN1CC[C@]23c4c5ccc(O)c4O[C@H]2[C@@H](O[C@@H]2O[C@H](C(=O)O)[C@@H](O)[C@H](O)[C@H]2O)C=C[C@H]3[C@H]1C5 [M6G] | 0.017 | 0.1 | 0.008 | –
13 | CN1CCN2c3ncccc3Cc3ccccc3C2C1 (stereo not shown) [Mirtazapine] | – | – | – | Kp,uu,brain Rat ([1]; *3 ref Summerfield et al. (25)): 1.611; Kp,uu,brain Human ([2]; *3 ref Summerfield et al. (25)): 0.79
14 | CO[C@@]1(NC(=O)C(C(=O)O)c2ccc(O)cc2)C(=O)N2C(C(=O)O)=C(CSc3nnnn3C)CO[C@@H]21 (stereo partly shown) [Moxalactam] | 0.02 | 0.41 | 0.019 | –
15 | Cc1c(O)cccc1C(=O)N[C@@H](CSc1ccccc1)[C@H](O)CN1C[C@H]2CCCC[C@H]2C[C@H]1C(=O)NC(C)(C)C [Nelfinavir] | 0.067 | 0.045 | 0.019 | Kp,uu,CSF Monkey [3]: 0.640; Kp,uu,brain Monkey [3]: 0.008
16 | O=C1CN(/N=C/c2ccc([N+](=O)[O-])o2)C(=O)N1 [Nitrofurantoin] | 0.0099 | – | 0.011 | –
17 | CCn1cc(C(=O)O)c(=O)c2cc(F)c(N3CCNCC3)cc21 [Norfloxacin] | 0.018 | 0.11 | 0.028 | –
18 | C=CCOc1ccccc1OCC(O)CNC(C)C (stereo not shown) [Oxprenolol] | 0.1 | – | 0.200 | –
19 | CN1CC[C@]23c4c5ccc(O)c4O[C@H]2C(=O)CC[C@@]3(O)[C@H]1C5 [Oxymorphone] | 0.91 | – | 0.790 | –
20 | O=C1NC(=O)C(c2ccccc2)(c2ccccc2)N1 [Phenytoin] | – | – | – | Kp,uu,brain Rat ([1]; *3 ref Summerfield et al. (25)): 0.316; Kp,uu,brain Rat ([1]; *7 ref Kodaira et al. (20)): 0.447; Kp,uu,CSF Rat ([1]; in vivo): 0.396; Kp,uu,brain Human ([2]; *3 ref Summerfield et al. (25)): 0.59
21 | O=C(O)C[C@H](O)C[C@H](O)/C=C/c1c(C2CC2)nc2ccccc2c1-c1ccc(F)cc1 [Pitavastatin] | – | – | – | Kp,uu,CSF Monkey [3]: 0.129; Kp,uu,brain Monkey [3]: 0.242
22 | COc1ccc(C2CNC(=O)C2)cc1OC1CCCC1 (stereo not shown) [Rolipram] | – | – | – | Kp,uu,brain Human ([2]; *3 ref Summerfield et al. (25)): 1.00
23 | O=C(O)c1ccccc1O [Salicylic acid] | 0.16 | 0.19 | 0.190 | –
24 | CC(C)(C)NC(=O)[C@@H]1C[C@@H]2CCCC[C@@H]2CN1C[C@@H](O)[C@H](Cc1ccccc1)NC(=O)[C@H](CC(N)=O)NC(=O)c1ccc2ccccc2n1 [Saquinavir] | – | 0.096 | 0.055 | –
25 | CSc1ccc2c(c1)N(CCC1CCCCN1C)c1ccccc1S2 (stereo not shown) [Thioridazine] | 0.21 | 1.4 | 0.45 | Kp,uu,brain Rat ([1]; *3 ref Summerfield et al. (25)): 1.425
26 | COc1cccc(C2(O)CCCCC2CN(C)C)c1 (stereo not shown) [Tramadol] | – | – | – | Kp,uu,CSF Rat ([1]; in vivo): 0.71; Kp,uu,brain Rat ([1]; in vivo): 1.460; Kp,uu,CSF Human ([2]; in vivo): 1.44
27 | O=c1n(CCCN2CCN(c3cccc(Cl)c3)CC2)nc2ccccn12 [Trazodone] | – | – | – | Kp,uu,brain Rat ([1]; *3 ref Summerfield et al. (25)): 0.957; Kp,uu,brain Human ([2]; *3 ref Summerfield et al. (25)): 0.93
